Data set [1] is described as follows: Plasma drug level of bisphenol. Type of data set: in vivo, mice. The note with it: for concentration at 14 weeks: male, apoE−/−;LDLr−/−, mouse, plasma, oral, 0.03 % (w/w) in chow, mice ranked by plasma drug level. As to the method:
(§1) Male apoE−/−;LDLr−/− mice (59 total), were maintained on standard R3 chow from weaning to 8 weeks of age (young controls, n=9). Thereafter mice received R3 chow with (n=25) or without supplemented bisphenol (n=25) for an additional 14 weeks. Standard R3-mouse chow was fortified with bisphenol at 0.03% (w/w), a level of supplementation shown in pilot experiments to afford circulating concentrations of the drug of ˜200 μM, considered suitable to test the effect of the co-antioxidant on atherogenesis in this animal model. At 22 weeks of age 10 and 15 mice of each group were used for biochemical and histological analyses, respectively. Due to the small size, it was necessary to pool aortas to yield sufficient material for biochemical analyses.
(§2) Analyses of oxidised and non-oxidised lipids were carried out by RP-HPLC as described in Example 1 except that in some instances UV234 nm rather than post-column chemiluminescence detection was used to measure C18:2-OOH and the corresponding hydroxides (together referred to as CE-O(O)H) which show similar retention times under these chromatographic conditions. α-TQ, α-TOH, α-tocotrienol, D-isosascorbate and ascorbate were determined by HPLC with electrochemical detection. For oxidation of plasma, unesterified cholesterol (which remained non-oxidised in these experiments) was employed as internal standard for all polyunsaturated, lipid-soluble components analysed. Bisphenol and diphenoquinone were analysed by RP-HPLC: flow 1.5 mL/min, 100% solvent A (MeCN/MeOH/H20 10:10:3, v/v/v) for 0-15 min monitored at 270 nm, followed by 50% solvent A and B (MeCN/MeOH 1:1, v/v) for 15-22 min at 242 nm and then 100% B for 22-28 min at 420 nm. Bisphenol and diphenoquinone eluted at 9 and 27 min, respectively. All compounds were quantified by peak area comparison with authentic standards. […]
Unless otherwise stated lipid and antioxidant levels are expressed as pmol/mg protein. LH, lipid containing bisallylic hydrogens. §Values are expressed as nmol/mg protein. […]

For data set [2], the system named is plasma from apoE−/−;LDLr−/− mice. Description: Ex vivo plasma lipid peroxidation initiated by aqueous peroxyl radicals (AAPH). Type of data set: in vivo. As to the method: Pooled plasma obtained from at least 3 mice receiving control diet (circles) or diet supplemented with bisphenol (squares) were treated with 5 mM AAPH and incubated at 37° C. At the times indicted aliquots were removed and analysed for α-TOH (A) and CE-O(O)H (B). 100% α-TOH levels correspond to 28±3 and 20±2 μM for control and H 212/43 plasma, respectively. Data represents the mean±SD (n=4 independent experiments).
Oxidation of plasma, pooled from=3 mice was carried out by addition of the peroxyl radical generator (final concentrations 5 mM) and incubating the reaction mixture at 37° C. under air. Aliquots (50 μL) of the reaction mixture were removed, extracted in methanol/hexane (1:5, v/v), and the consumption of antioxidants and accumulation of lipid oxidation products determined.

A further data set has as its system apoE−/−;LDLr−/− mice. The experiment in a line: Plasma lipid and vitamin E levels. Type of data set: in vivo. The note with it: chow with 0.03% bisphenol, 14 weeks. On the procedure:
as §1, with “Due to the small size, it was necessary to pool aortas to yield sufficient material for biochemical analyses.” left out
as §2, with “Bisphenol and diphenoquinone were analysed by RP-HPLC: flow 1.5 mL/min, 100% solvent A (MeCN/MeOH/H20 10:10:3, v/v/v) for 0-15 min monitored at 270 nm, followed by 50% solvent A and B (MeCN/MeOH 1:1, v/v) for 15-22 min at 242 nm and then 100% B for 22-28 min at 420 nm. Bisphenol and diphenoquinone eluted at 9 and 27 min, respectively.” left out

The nature of data set [3]: Probucol and metabolite levels in aorta and plasma. Type of data set: in vivo. The settings on record: apoE−/− mice, 1% probucol, 24 weeks. As to the method: Male C57BL/6J mice, homozygous for the disrupted apoE gene (apoE−/−) were fed standard chow (Lab-Feed, Sydney, Australia) until aged 10 weeks.
Lipid-soluble antioxidants and lipids were quantified by HPLC as described in FASEB J. 1999;13:667-675. For ascorbate analysis, frozen acidified samples were thawed, diluted with DPBS to adjust the pH to 7.4 and then immediately subjected to HPLC. Plasma triglycerides were determined enzymatically (Boehringer, Mannheim, Germany).
Pooled aortas were snap frozen in liquid nitrogen, pulverised, resuspended in Buffer A, homogenised and then either treated with metaphosphoric acid (for ascorbate) or extracted and the hexane fraction analysed for lipid-soluble antioxidants, cholesterol (C), choleseteryl esters (CE), lipid hydroperoxides (LOOH) and cholesteryl ester hydroxides (CE-OH) by HPLC as described in Methods Enzymol. 1994;233:469-489. LOOH and CE-OH were measured as markers of lipoprotein lipid oxidation, as they are the primary and major oxidation products formed when lipoproteins from apoE−/− mice undergo oxidation. […] All compounds were quantified by peak area comparison with authentic standards, and protein determined.

Data set [4] concerns ballooned New Zealand White rabbits. The experiment in a line: Re-endothelialization in cholesterol-fed and normal chow fed ballooned rabbits. The data set is classed as in vivo. From the text:
Results are from two separate experiments and represent mean±SD of six (cholesterol diet) and five animals (normal diet) per group. Asterisk indicates statistically significant higher values compared with corresponding controls, with p-values of 0.002, 0.015 and 0.025 for *, ** and * respectively.

Where [5] appears, read: pooled plasma of bisphenol-treated mice, 5 mM AAPH, 37° C., 12 h.
[6] abbreviates: 2% Cholesterol-fed ballooned rabbits.
Setting [7] is: Normal Chow fed ballooned rabbits.

Where two headings read alike, the source gives them in different places. Marks after values point to notes of the source that are not given here.

For the compound `CC(C)(C)c1cc(-c2cc(C(C)(C)C)c(O)c(C(C)(C)C)c2)cc(C(C)(C)C)c1O` [Bisphenol, bisphenol], in data set [1] (chow fortified with bisphenol at 0.03% (w/w)), the “circulating concentrations of the drug, pilot experiments” value is around 200 µM. For the same compound, in data set [1] (Bisphenol [high] aorta pool, read-out: plasma concentration of bisphenol, high group), the concentration at 14 weeks amounted to 212 ± 50 µM. In data set [1] (Bisphenol [low] aorta pool, read-out: plasma concentration of bisphenol, low group), the concentration at 14 weeks was 106 ± 40 µM. In data set [2] (setting [5]), the “CE-OOH detected after 12 h of ex vivo oxidation” value is below 1 µM and the “α-TOH after 12 h of ex vivo oxidation” value is “remained unaltered”. Besides, in data set [2] (pooled plasma of mice receiving bisphenol diet), the “100% α-TOH level of plasma before oxidation” value is 20 ± 2 µM. Moreover, the “Plasma Triglycerides” value in the data set with apoE−/−;LDLr−/− mice is on record as 6.3 (0.5) mm.

With `CC(C)(Sc1cc(C(C)(C)C)c(O)c(C(C)(C)C)c1)Sc1cc(C(C)(C)C)c(O)c(C(C)(C)C)c1` [Probucol, probucol], the “drug metabolised to bisphenol or diphenoquinone, aorta” value in data set [3] (aorta) was around 11%. Further, the “drug converted into bisphenol or diphenoquinone, plasma” value in data set [3] (plasma) is around 8%. For the same compound, in data set [4] (setting [6]), the “Re-endothelialized area, Abdominal Aorta” value was 55.1 ± 7.1** % total surface area and the “Re-endothelialized area, Thoracic Aorta” value is given as 57.3 ± 5.1* % total surface area. Also, in data set [4] (setting [7]), the “Re-endothelialized area, Abdominal Aorta” value is recorded as 48.2 ± 9.0*** % total surface area and the “Re-endothelialized area, Thoracic Aorta” value is recorded as 50.4 ± 6.4** % total surface area.

The values are drawn from US20020115728A1, “Compositions and methods for treating cardiovascular disorders” (priority 2000, published 2002).
